Assay results: PubChem BioAssay AID328 (DTP/NCI, 2004)
“And” between values parts separate entries of the source, which are not always exact repeats. Equal values may be shown once. Toxic doses and inconclusive results are not listed.

System: BDF1 mice, P388 leukemia ip, median survival T/C
Assay: NCI In Vivo Anticancer Drug Screen. Data for tumor model P388 Leukemia (intraperitoneal) in B6D2F1 (BDF1) mice
Conditions: endpoint: median survival time, higher = longer survival
In short: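 In tumour-bearing mice, survival after compound treatment is set against the vehicle group and given as a quotient.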

[1] = dose: 1.0 mg/kg/injection, schedule: Q01DX009 (ip), vehicle: saline
[2] = dose: 4.0 mg/kg/injection, schedule: Q01DX009 (ip), vehicle: saline
[3] = dose: 8.0 mg/kg/injection, schedule: Q01DX009 (ip), vehicle: saline
[4] = dose: 16.0 mg/kg/injection, schedule: Q01DX009 (ip), vehicle: saline
[5] = dose: 32.0 mg/kg/injection, schedule: Q01DX009 (ip), vehicle: saline
[6] = dose: 12.5 mg/kg/injection, schedule: Q01DX009 (ip), vehicle: Klucel (hydroxypropylcellulose) (HPC)
[7] = dose: 25.0 mg/kg/injection, schedule: Q01DX009 (ip), vehicle: Klucel (hydroxypropylcellulose) (HPC)
[8] = dose: 50.0 mg/kg/injection, schedule: Q01DX009 (ip), vehicle: Klucel (hydroxypropylcellulose) (HPC)
[9] = dose: 100.0 mg/kg/injection, schedule: Q01DX009 (ip), vehicle: Klucel (hydroxypropylcellulose) (HPC)
[10] = dose: 100.0 mg/kg/injection, schedule: Q04DX003 (ip), vehicle: Klucel (hydroxypropylcellulose) (HPC)
[11] = dose: 200.0 mg/kg/injection, schedule: Q04DX003 (ip), vehicle: Klucel (hydroxypropylcellulose) (HPC)
[12] = dose: 0.12 mg/kg/injection, schedule: Q01DX009 (ip), vehicle: saline
[13] = dose: 2.0 mg/kg/injection, schedule: Q01DX009 (ip), vehicle: saline

With O=C(NP(=O)(N1CC1)N1CC1)c1cc(I)ccc1I the T/C (dose: 1.0 mg/kg/injection, schedule: Q01DX001 (oral), vehicle: saline) was 102 % of control, the T/C (dose: 1.0 mg/kg/injection, schedule: Q01DX009 (ip), vehicle: saline with Tween-80) was 110 % of control and the T/C [1] was 104 % of control and 202 % of control. For the same compound, the T/C (dose: 2.0 mg/kg/injection, schedule: Q01DX001 (oral), vehicle: saline) was 100 % of control, the T/C (dose: 2.0 mg/kg/injection, schedule: Q01DX009 (ip), vehicle: saline with Tween-80) was 101 % of control and the T/C (dose: 4.0 mg/kg/injection, schedule: Q01DX001 (oral), vehicle: saline) was 101 % of control. For the same compound, the T/C (dose: 4.0 mg/kg/injection, schedule: Q01DX009 (ip), vehicle: saline with Tween-80) was 105 % of control, the T/C [2] was 96 % of control and 222 % of control and the T/C (dose: 8.0 mg/kg/injection, schedule: Q01DX001 (oral), vehicle: saline) was 113 % of control. For the same compound, the T/C [3] was 232 % of control and 150 % of control, the T/C (dose: 16.0 mg/kg/injection, schedule: Q01DX001 (oral), vehicle: saline) was 113 % of control and the T/C (dose: 16.0 mg/kg/injection, schedule: Q01DX009 (ip), vehicle: saline with Tween-80) was 214 % of control. The T/C [4] was 177 % of control and 191 % of control, the T/C (dose: 32.0 mg/kg/injection, schedule: Q01DX009 (ip), vehicle: saline with Tween-80) was 177 % of control and the T/C [5] was 93 % of control and 207 % of control. For the same compound, the T/C (dose: 64.0 mg/kg/injection, schedule: Q01DX001 (oral), vehicle: saline) was 150 % of control, the T/C (dose: 64.0 mg/kg/injection, schedule: Q01DX009 (ip), vehicle: saline with Tween-80) was 112 % of control and the T/C (dose: 128.0 mg/kg/injection, schedule: Q01DX009 (ip), vehicle: saline) was 123 % of control. The T/C (dose: 256.0 mg/kg/injection, schedule: Q01DX001 (oral), vehicle: saline) was 161 % of control.

In the case of CCOC(=O)c1cnc(N(C)C)[nH]c1=O, the T/C [6] is reported as 103 % of control, the T/C [7] is reported as 95 % of control and the T/C [8] is reported as 86 % of control.

In the case of CC(=O)c1ccc2ccccc2c1OC(=O)c1cccnc1, the T/C (dose: 50.0 mg/kg/injection, schedule: Q01DX009 (ip), vehicle: other) is reported as 100 % of control, the T/C (dose: 100.0 mg/kg/injection, schedule: Q01DX009 (ip), vehicle: other) is reported as 109 % of control and the T/C (dose: 200.0 mg/kg/injection, schedule: Q01DX009 (ip), vehicle: other) is reported as 118 % of control.

For CCOC(=O)CSc1nc2nc(Cl)c(Cl)nc2[nH]1, the T/C (dose: 3.12 mg/kg/injection, schedule: Q04DX003 (ip), vehicle: saline with Tween-80) was 112 % of control, the T/C (dose: 6.25 mg/kg/injection, schedule: Q04DX003 (ip), vehicle: saline with Tween-80) was 102 % of control and the T/C (dose: 12.5 mg/kg/injection, schedule: Q04DX003 (ip), vehicle: saline with Tween-80) was 100 % of control. For the same compound, the T/C (dose: 25.0 mg/kg/injection, schedule: Q01DX009 (ip), vehicle: saline with Tween-80) was 88 % of control, the T/C (dose: 25.0 mg/kg/injection, schedule: Q04DX003 (ip), vehicle: saline with Tween-80) was 102 % of control and the T/C (dose: 50.0 mg/kg/injection, schedule: Q01DX009 (ip), vehicle: saline with Tween-80) was 106 % of control. The T/C (dose: 50.0 mg/kg/injection, schedule: Q04DX003 (ip), vehicle: saline with Tween-80) was 95 % of control and 102 % of control, the T/C (dose: 100.0 mg/kg/injection, schedule: Q01DX009 (ip), vehicle: saline with Tween-80) was 92 % of control and the T/C (dose: 100.0 mg/kg/injection, schedule: Q04DX003 (ip), vehicle: saline with Tween-80) was 103 % of control. The T/C (dose: 200.0 mg/kg/injection, schedule: Q01DX009 (ip), vehicle: saline with Tween-80) was 100 % of control, the T/C (dose: 200.0 mg/kg/injection, schedule: Q04DX003 (ip), vehicle: saline with Tween-80) was 97 % of control and the T/C (dose: 400.0 mg/kg/injection, schedule: Q01DX009 (ip), vehicle: saline with Tween-80) was 106 % of control. For the same compound, the T/C (dose: 400.0 mg/kg/injection, schedule: Q04DX003 (ip), vehicle: saline with Tween-80) was 108 % of control.

In the case of O=[N+]([O-])/C=C\c1ccc2c(c1)OCO2, the T/C [7] is reported as 111 % of control and 120 % of control, the T/C (dose: 35.0 mg/kg/injection, schedule: Q01DX009 (ip), vehicle: Klucel (hydroxypropylcellulose) (HPC)) is reported as 105 % of control and the T/C (dose: 75.0 mg/kg/injection, schedule: Q01DX009 (ip), vehicle: Klucel (hydroxypropylcellulose) (HPC)) is reported as 95 % of control. For the same compound, the T/C [9] was 100 % of control and 105 % of control, the T/C [10] was 104 % of control and the T/C [11] was 108 % of control.

In the case of CCOC(=O)CN1C=C(C(=O)c2cc3ccccc3n2S(=O)(=O)c2ccccc2)CCC1, the T/C (dose: 0.05 mg/kg/injection, schedule: Q01DX009 (ip), vehicle: saline) is reported as 104 % of control, the T/C (dose: 0.06 mg/kg/injection, schedule: Q01DX009 (ip), vehicle: saline) is reported as 105 % of control and 115 % of control and the T/C (dose: 0.1 mg/kg/injection, schedule: Q01DX009 (ip), vehicle: saline) is reported as 106 % of control. For the same compound, the T/C [12] was 150 % of control, the T/C (dose: 0.13 mg/kg/injection, schedule: Q01DX009 (ip), vehicle: saline) was 88 % of control and the T/C (dose: 0.2 mg/kg/injection, schedule: Q01DX009 (ip), vehicle: saline) was 114 % of control. The T/C (dose: 0.25 mg/kg/injection, schedule: Q01DX009 (ip), vehicle: saline) was 105 % of control and 110 % of control, the T/C (dose: 0.5 mg/kg/injection, schedule: Q01DX009 (ip), vehicle: saline) was 115 % of control and the T/C [1] was 100 % of control. For the same compound, the T/C [13] was 99 % of control and 105 % of control, the T/C [2] was 121 % of control and the T/C [3] was 104 % of control. For the same compound, the T/C [4] was 109 % of control and the T/C [5] was 106 % of control.

In the case of COc1cc2c(cc1OCc1ccccc1)C=CN(C(=O)c1ccccc1)C2C#N (stereo unspecified), the T/C (dose: 25.0 mg/kg/injection, schedule: Q01DX009 (ip), vehicle: saline) is reported as 105 % of control, the T/C (dose: 25.0 mg/kg/injection, schedule: Q04DX003 (ip), vehicle: saline) is reported as 103 % of control and the T/C (dose: 50.0 mg/kg/injection, schedule: Q01DX009 (ip), vehicle: saline) is reported as 92 % of control. For the same compound, the T/C (dose: 50.0 mg/kg/injection, schedule: Q04DX003 (ip), vehicle: saline) was 100 % of control, the T/C (dose: 100.0 mg/kg/injection, schedule: Q01DX009 (ip), vehicle: saline) was 93 % of control and the T/C (dose: 100.0 mg/kg/injection, schedule: Q04DX003 (ip), vehicle: saline) was 97 % of control. The T/C (dose: 200.0 mg/kg/injection, schedule: Q01DX009 (ip), vehicle: saline) was 90 % of control, the T/C (dose: 200.0 mg/kg/injection, schedule: Q04DX003 (ip), vehicle: saline) was 103 % of control and the T/C (dose: 400.0 mg/kg/injection, schedule: Q01DX009 (ip), vehicle: saline) was 96 % of control. The T/C (dose: 400.0 mg/kg/injection, schedule: Q04DX003 (ip), vehicle: saline) was 97 % of control.

In the case of C=CCN1/C(=C/C=C\c2sc3ccccc3[n+]2CC=C)Sc2ccccc21, the T/C [12] is reported as 100 % of control, the T/C (dose: 0.25 mg/kg/injection, schedule: Q04DX003 (ip), vehicle: Klucel (hydroxypropylcellulose) (HPC)) is reported as 175 % of control and the T/C (dose: 0.5 mg/kg/injection, schedule: Q04DX003 (ip), vehicle: Klucel (hydroxypropylcellulose) (HPC)) is reported as 115 % of control. The T/C [1] was 154 % of control, the T/C (dose: 1.0 mg/kg/injection, schedule: Q01DX010 (ip), vehicle: saline) was 123 % of control and the T/C (dose: 1.0 mg/kg/injection, schedule: Q04DX003 (ip), vehicle: Klucel (hydroxypropylcellulose) (HPC)) was 110 % of control. The T/C (dose: 63.0 micrograms/kg/injection, schedule: Q01DX010 (ip), vehicle: saline) was 90 % of control, the T/C (dose: 125.0 micrograms/kg/injection, schedule: Q01DX010 (ip), vehicle: saline) was 90 % of control and the T/C (dose: 250.0 micrograms/kg/injection, schedule: Q01DX010 (ip), vehicle: saline) was 90 % of control.

With CCOC(=O)C(C(=O)OCC)=C(C#N)c1c[nH]c2ccccc12 the T/C [6] was 90 % of control, the T/C [7] was 104 % of control and the T/C [8] was 104 % of control. For the same compound, the T/C [10] was 95 % of control, the T/C [11] was 100 % of control and the T/C (dose: 400.0 mg/kg/injection, schedule: Q04DX003 (ip), vehicle: Klucel (hydroxypropylcellulose) (HPC)) was 109 % of control.

With c1ccc2c[n+](CCCCCCCCCC[n+]3ccc4ccccc4c3)ccc2c1 the T/C [1] was 104 % of control, the T/C [13] was 113 % of control and the T/C (dose: 2.5 mg/kg/injection, schedule: Q01DX009 (ip), vehicle: saline) was 110 % of control and 115 % of control. For the same compound, the T/C (dose: 2.6 mg/kg/injection, schedule: Q01DX009 (ip), vehicle: saline) was 120 % of control, the T/C [2] was 110 % of control and the T/C (dose: 5.0 mg/kg/injection, schedule: Q01DX009 (ip), vehicle: saline) was 107 % of control. The T/C (dose: 10.0 mg/kg/injection, schedule: Q01DX009 (ip), vehicle: saline) was 103 % of control and 112 % of control.

For O=S1(=O)CC(Cl)(Br)C1 (tested in a mixture with another compound), the T/C [9] was 91 % of control.
